Source: patent publication US20150315188A1, “COMPOUNDS AND METHODS FOR TREATMENT OF HYPERTENSION” (MEDIVATION TECHNOLOGIES, INC., priority 2012, published 2015)

Assays:
Set-up in all cases: purchased Milipore (Millipore)
[1] = target: T1, Human adrenergic α2B receptor (Homo sapiens, UniProt P18089); assay: Radioligand binding, adrenergic α2B (Protocol Group B); settings: Protocol Group B; for Percentage inhibition of ligand binding, Adrenergic α2B (10 nM) / inhibition at 0.01 µM: 10 nM compound; for Percentage inhibition of ligand binding, Adrenergic α2B (10 nM): 0.01 µM; for Percentage inhibition of ligand binding, Adrenergic α2B (30 nM) / inhibition at 0.03 µM: 30 nM compound; for Percentage inhibition of ligand binding, Adrenergic α2B (30 nM): 0.03 µM; for Percentage inhibition of ligand binding, Adrenergic α2B (0.1 μM) / inhibition at 0.1 µM: 0.1 μM compound; for inhibition at 0.1 µM: read-out: Percentage inhibition of ligand binding, Adrenergic α2B (0.1 μM); for inhibition at 0.03 µM: read-out: Percentage inhibition of ligand binding, Adrenergic α2B (30 nM); for inhibition at 0.01 µM: read-out: Percentage inhibition of ligand binding, Adrenergic α2B (10 nM)
T1 sequence (P18089 1-450): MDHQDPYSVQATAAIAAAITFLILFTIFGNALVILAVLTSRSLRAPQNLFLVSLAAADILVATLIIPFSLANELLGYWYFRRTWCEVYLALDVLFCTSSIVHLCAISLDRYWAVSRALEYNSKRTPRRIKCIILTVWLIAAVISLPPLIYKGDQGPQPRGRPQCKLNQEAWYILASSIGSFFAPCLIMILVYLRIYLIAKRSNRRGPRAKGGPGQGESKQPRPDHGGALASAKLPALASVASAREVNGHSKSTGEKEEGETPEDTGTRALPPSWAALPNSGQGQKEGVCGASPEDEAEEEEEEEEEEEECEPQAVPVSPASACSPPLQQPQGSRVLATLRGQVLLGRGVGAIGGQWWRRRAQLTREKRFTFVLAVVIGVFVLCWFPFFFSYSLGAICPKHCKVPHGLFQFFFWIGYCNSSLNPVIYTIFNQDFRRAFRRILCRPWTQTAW
How it was run: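 Compounds at various concentrations in 1% DMSO were tested on recombinant membranes in Tris-HCl pH 7.4 buffer containing MgCl2, CaCl2 and 0.2% BSA.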

[2] = target: T2, Human adrenergic α2A receptor (Homo sapiens, UniProt P08913); assay: Radioligand binding, adrenergic α2A (Protocol Group B); settings: Protocol Group B; for Percentage inhibition of ligand binding, Adrenergic α2A (0.1 μM) / inhibition at 0.1 µM: 0.1 μM compound; for Percentage inhibition of ligand binding, Adrenergic α2A (0.3 μM) / inhibition at 0.3 µM: 0.3 μM compound; for inhibition at 0.1 µM: read-out: Percentage inhibition of ligand binding, Adrenergic α2A (0.1 μM); for inhibition at 0.3 µM: read-out: Percentage inhibition of ligand binding, Adrenergic α2A (0.3 μM)
T2 sequence (P08913 1-465): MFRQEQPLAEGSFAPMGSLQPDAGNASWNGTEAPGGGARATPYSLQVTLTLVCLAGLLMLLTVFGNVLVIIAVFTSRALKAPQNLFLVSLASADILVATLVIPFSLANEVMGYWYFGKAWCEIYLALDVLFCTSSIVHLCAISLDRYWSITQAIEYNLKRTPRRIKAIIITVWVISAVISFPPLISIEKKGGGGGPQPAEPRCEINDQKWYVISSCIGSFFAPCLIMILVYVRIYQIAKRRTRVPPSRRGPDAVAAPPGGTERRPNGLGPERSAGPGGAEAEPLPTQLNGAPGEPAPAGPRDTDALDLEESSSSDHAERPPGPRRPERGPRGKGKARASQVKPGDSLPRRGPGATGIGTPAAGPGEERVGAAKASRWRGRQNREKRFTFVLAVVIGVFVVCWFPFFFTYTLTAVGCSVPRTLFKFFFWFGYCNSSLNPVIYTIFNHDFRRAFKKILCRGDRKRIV
How it was run: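 Compounds (1% DMSO vehicle, various concentrations) competed against 2 nM [^3H]MK-912 on recombinant receptor membranes for 60 min at 25° C, Tris-HCl pH 7.4 buffer with Mg2+, Ca2+, BSA. Bound radioligand filtered and counted; 10 μM rauwolscine set nonspecific binding. Values: percent inhibition of specific binding or estimated Ki.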

[3] = target: T3, Human adrenergic α1B receptor (Homo sapiens, UniProt P35368); assay: Radioligand binding, adrenergic α1B (Protocol Group B); settings: Protocol Group B; for Percentage inhibition of ligand binding, Adrenergic α1B (0.1 μM) / inhibition at 0.1 µM: 0.1 μM compound; for Percentage inhibition of ligand binding, Adrenergic α1B (0.3 μM) / inhibition at 0.3 µM: 0.3 μM compound; for inhibition at 0.3 µM: read-out: Percentage inhibition of ligand binding, Adrenergic α1B (0.3 μM); for inhibition at 0.1 µM: read-out: Percentage inhibition of ligand binding, Adrenergic α1B (0.1 μM)
T3 sequence (P35368 1-520): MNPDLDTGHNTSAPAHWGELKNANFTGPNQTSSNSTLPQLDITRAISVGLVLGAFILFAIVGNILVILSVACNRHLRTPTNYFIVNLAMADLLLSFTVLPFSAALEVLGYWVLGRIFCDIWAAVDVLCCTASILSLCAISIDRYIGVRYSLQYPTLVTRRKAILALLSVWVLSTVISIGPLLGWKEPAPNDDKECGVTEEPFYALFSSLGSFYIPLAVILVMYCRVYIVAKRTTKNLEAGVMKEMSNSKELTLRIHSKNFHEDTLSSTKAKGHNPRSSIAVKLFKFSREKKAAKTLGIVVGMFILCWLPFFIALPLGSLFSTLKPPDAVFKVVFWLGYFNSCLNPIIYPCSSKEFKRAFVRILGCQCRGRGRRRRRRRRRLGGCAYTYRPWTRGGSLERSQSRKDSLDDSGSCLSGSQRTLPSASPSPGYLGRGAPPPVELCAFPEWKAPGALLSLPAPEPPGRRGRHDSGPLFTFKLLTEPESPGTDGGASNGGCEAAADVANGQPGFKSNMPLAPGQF
How it was run: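 Values are percent inhibition of specific [3H]prazosin (0.3 nM) binding or estimated Ki, from filtration counting. Human α1B recombinant membranes, Tris-HCl pH 7.4 buffer with MgCl2 and EDTA, 60 min at 25 °C, 1% DMSO vehicle; 10 μM prazosin defined nonspecific binding.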

SMILES	Percentage inhibition of ligand binding, Adrenergic α2B (10 nM) [1] [%]	Percentage inhibition of ligand binding, Adrenergic α2B (30 nM) [1] [%]	Percentage inhibition of ligand binding, Adrenergic α2B (0.1 μM) [1] [%]	Percentage inhibition of ligand binding, Adrenergic α2A (0.1 μM) [2] [%]	Percentage inhibition of ligand binding, Adrenergic α2A (0.3 μM) ([2]; 0.3 µM) [%]	Percentage inhibition of ligand binding, Adrenergic α1B (0.1 μM) [3] [%]	Percentage inhibition of ligand binding, Adrenergic α1B (0.3 μM) [3] [%]	inhibition at 0.1 µM [1] [%]	inhibition at 0.3 µM [3] [%]	Percentage inhibition of ligand binding, Adrenergic α2A (0.3 μM) [2] [%]	Ki ([1]; estimated Ki, read-out: Ki α2B) [nM]	Ki ([2]; estimated Ki) [nM]	inhibition at 0.03 µM [1] [%]	inhibition at 0.01 µM [1] [%]	inhibition at 0.1 µM [2] [%]	inhibition at 0.3 µM [2] [%]	inhibition at 0.1 µM [3] [%]
Cc1cc2c3c(n(CC(C)(O)c4ccncc4)c2cc1Cl)CCN1CCCC31 (single isomer, unassigned) [50c]	15	42	91	22	49	19	43	–	–	–	–	–	–	–	–	–	–
Cc1ccc2c(c1)c1c(n2CC(O)c2ccncc2)CN(C)C2CCCC12 (single isomer, unassigned) [36b]	−19	−14	−10	−7	–	0	5	–	–	−5	–	–	–	–	–	–	–
CN1CCc2c(c3cc(C(F)(F)F)ccc3n2CC(OC2CCCC2)c2ccncc2)C1 (single isomer, unassigned) [60a]	23	–	–	26	50	12	40	72	–	–	–	–	47	–	–	–	–
Cc1ccc2c(c1)c1c(n2CC(C)(O)c2ccncc2)CC2CCCN2C1 (single isomer, unassigned) [37d]	15	36	68	4	17	5	14	–	–	–	–	–	–	–	–	–	–
Cc1ccc2c(c1)c1c(n2CC(OCC2CCC2)c2ccncc2)CCN(C)C1 (stereo not shown) [59b]	–	–	–	–	–	–	–	99	62	–	–	–	97	84	39	65	28
Cc1cc(C)c2c(c1)c1c(n2CC(C)(O)c2ccncc2)CCN2CCCC12 (single isomer, unassigned) [19c]	−13	−12	6	−7	1	−5	−1	–	–	–	–	–	–	–	–	–	–

Next, values leading:

Percentage inhibition of ligand binding, Adrenergic α2B (10 nM) [1] [%]	Percentage inhibition of ligand binding, Adrenergic α2B (30 nM) [1] [%]	Percentage inhibition of ligand binding, Adrenergic α2B (0.1 μM) [1] [%]	Percentage inhibition of ligand binding, Adrenergic α2A (0.1 μM) [2] [%]	Percentage inhibition of ligand binding, Adrenergic α2A (0.3 μM) ([2]; 0.3 µM) [%]	Percentage inhibition of ligand binding, Adrenergic α1B (0.1 μM) [3] [%]	Percentage inhibition of ligand binding, Adrenergic α1B (0.3 μM) [3] [%]	inhibition at 0.1 µM [1] [%]	inhibition at 0.3 µM [3] [%]	Percentage inhibition of ligand binding, Adrenergic α2A (0.3 μM) [2] [%]	Ki ([1]; estimated Ki, read-out: Ki α2B) [nM]	Ki ([2]; estimated Ki) [nM]	inhibition at 0.03 µM [1] [%]	inhibition at 0.01 µM [1] [%]	inhibition at 0.1 µM [2] [%]	inhibition at 0.3 µM [2] [%]	inhibition at 0.1 µM [3] [%]	SMILES
81	95	100	59	79	77	91	–	–	–	–	–	–	–	–	–	–	Cc1cc(C)c2c(c1)c1c(n2CC(C)(O)c2ccncc2)CCN2CCCC12 (stereo not shown) [compound 19, 1-(8,10-dimethyl-2,3,5,6-tetrahydro-1H-indolizino[7,8-b]indol-7(11cH)-yl)-2-(pyridin-4-yl)propan-2-ol]
–	56	–	−11	–	−4	–	–	–	–	–	–	–	–	–	–	–	CN1CCc2c(c3cc(CCO)ccc3n2CC(O)c2ccncc2)C1 (single isomer, unassigned) [140b]
73	91	–	37	61	18	–	96	47	–	–	–	–	–	–	–	–	CC(O)(Cn1c2c(c3cc(C(F)(F)F)ccc31)C1CCCN1CC2)c1cccnc1 (single isomer, unassigned) [64a]
90	96	–	67	84	41	69	–	–	–	0.98	24.5	–	–	–	–	–	Cc1cc(F)cc2c3c(n(CC(C)(O)c4cccnc4)c12)CCN1CCCC31 (single isomer, unassigned) [75c]
−6	−3	22	0	13	−1	1	–	–	–	–	–	–	–	–	–	–	CC(O)(Cn1c2c(c3cc(Cl)cc(F)c31)CN1CCCC1C2)c1cccnc1 (single isomer, unassigned) [63b]
–	100	–	61	–	18	–	–	–	–	–	–	–	–	–	–	–	OC(Cn1c2c(c3cc(F)cc(F)c31)C1CCCN1CC2)c1ccncc1 (single isomer, unassigned) [144b]
14	34	–	5	31	–	–	69	18	–	–	–	–	–	–	–	-1	Cc1ccc2c(c1)c1c(n2CC(C)(O)c2cnc3ccccc3c2)CCN(C)C1 (stereo not shown) [compound 32]
–	–	–	–	–	–	–	-1	1	–	–	–	-4	-10	-3	5	-1	Cc1cc(F)cc2c3c(n(CC(C)(O)c4cccnc4)c12)CCN1CCCC31 (stereo not shown) [75b]
